ChEMBL document CHEMBL4251732, “Discovery of Novel Indoleamine 2,3-Dioxygenase 1 (IDO1) and Histone Deacetylase (HDAC) Dual Inhibitors” (ACS Med Chem Lett, 2018)
Active and inactive are the calls of the source. No cut-off for these calls is given here.

Tests used:
Histone deacetylase 1 = Histone deacetylase 1 (Homo sapiens, UniProt Q13547); assay: Inhibition of recombinant human full length HDAC1 using fluorogenic substrate 3 after 30 mins by fluorescence assay
[1] = target: T1, Indoleamine 2,3-dioxygenase 1 (Homo sapiens, UniProt P14902); assay: Inhibition of recombinant human GST-tagged IDO1 (1 to 404 residues) at 1 uM using D-Tryptophan as substrate relative to control
Target sequence in this assay (P14902 whole entry, looked up, the tested form may be a part): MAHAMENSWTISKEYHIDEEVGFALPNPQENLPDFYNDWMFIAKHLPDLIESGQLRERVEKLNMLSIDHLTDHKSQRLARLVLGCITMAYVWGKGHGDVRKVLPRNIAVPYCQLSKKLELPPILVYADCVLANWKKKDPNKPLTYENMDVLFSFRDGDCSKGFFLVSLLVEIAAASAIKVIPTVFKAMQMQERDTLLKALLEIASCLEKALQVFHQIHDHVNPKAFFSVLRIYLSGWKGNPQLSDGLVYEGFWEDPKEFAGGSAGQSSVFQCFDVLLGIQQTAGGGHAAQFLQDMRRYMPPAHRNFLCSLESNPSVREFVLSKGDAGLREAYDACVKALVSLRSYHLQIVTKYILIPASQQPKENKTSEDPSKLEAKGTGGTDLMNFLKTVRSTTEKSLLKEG

[2] = system: Lewis lung carcinoma cell line; assay: Antiproliferative activity against mouse LLC cells after 48 hrs by CCK-8 assay; format: functional, cell-based
CT26 = assay: Antiproliferative activity against mouse CT26 cells after 48 hrs by CCK-8 assay; format: functional, cell-based; conditions: CT26, 48 h
A549 = assay: Antiproliferative activity against human A549 cells after 48 hrs by CCK-8 assay; format: functional, cell-based; conditions: A549, 48 h
HCT-116 [3] = assay: Antiproliferative activity against human HCT116 cells after 48 hrs by CCK-8 assay; format: functional, cell-based; conditions: HCT-116, 48 h
HT-29 = assay: Antiproliferative activity against human HT-29 cells after 48 hrs by CCK-8 assay; format: functional, cell-based; conditions: HT-29, 48 h
[4] = target: T1, Indoleamine 2,3-dioxygenase 1; assay: Inhibition of recombinant human GST-tagged IDO1 (1 to 404 residues) using D-Tryptophan as substrate
Target sequence in this assay (P14902 whole entry, the tested form may be a part): as the sequence (P14902 whole entry, looked up, the tested form may be a part) above

HCT-116 [5] = assay: Induction of apoptosis in human HCT116 cells after 48 hrs by Annexin V-FITC/propidium iodide staining based flow cytometry; format: functional, cell-based
HCT-116 [6] = assay: Induction of apoptosis in human HCT116 cells at 5 uM after 48 hrs by Annexin V-FITC/propidium iodide staining based flow cytometry relative to control; format: functional
HCT-116 [7] = assay: Induction of apoptosis in human HCT116 cells at 10 uM after 48 hrs by Annexin V-FITC/propidium iodide staining based flow cytometry relative to control; format: functional
HCT-116 [8] = assay: Induction of apoptosis in human HCT116 cells at 20 uM after 48 hrs by Annexin V-FITC/propidium iodide staining based flow cytometry relative to control; format: functional
HCT-116 [9] = assay: Cell cycle arrest in human HCT116 cells assessed as accumulation at G2/M phase up to 48 hrs by propidium iodide staining based flow cytometry; format: functional
Mus musculus [10] = assay: In vivo inhibition of IDO1 in wild type C57BL/6 mouse assessed as reduction in kynurenine levels in plasma at 100 mg/kg, po administered via gavage measured up to 1 hr by LC-MS/MS analysis; format: functional, organism-based
Mus musculus [11] = assay: In vivo inhibition of IDO1 in wild type C57BL/6 mouse assessed as reduction in kynurenine levels in plasma at 100 mg/kg, po administered via gavage after 8 hrs by LC-MS/MS analysis; format: functional; conditions: C57BL/6, po
[12] = system: Lewis lung carcinoma cell line; assay: Antitumor activity against mouse LLC cells implanted in immunocompetent C57BL/6 mouse assessed as tumor growth inhibition at 100 mg/kg, po bid administered via gavage for 14 consecutive days measured every 4 days relative to control; format: functional; conditions: 96 h, read-out: TGI
[13] = Cmax in Sprague-Dawley rat at 100 mg/kg, po administered as single dose via gavage by LC-MS/MS analysis; format: ADME, organism-based; design: dose 100 mg/kg, route oral; conditions: in vivo
[14] = Tmax in Sprague-Dawley rat at 100 mg/kg, po administered as single dose via gavage by LC-MS/MS analysis; format: ADME, organism-based; conditions: in vivo
[15] = Half life in Sprague-Dawley rat at 100 mg/kg, po administered as single dose via gavage by LC-MS/MS analysis; format: ADME, organism-based; conditions: in vivo
[16] = AUC (0 to infinity) in Sprague-Dawley rat at 100 mg/kg, po administered as single dose via gavage by LC-MS/MS analysis; format: ADME, organism-based; design: dose 100 mg/kg, time infinity, route oral; conditions: in vivo
[17] = AUC in immunocompetent C57BL/6 mouse implanted with mouse LLC cells at 100 mg/kg, po bid administered via gavage; format: ADME, organism-based; conditions: in vivo
[18] = Half life in immunocompetent C57BL/6 mouse implanted with mouse LLC cells at 100 mg/kg, po bid administered via gavage; format: ADME, organism-based; conditions: in vivo

Chain of Histone deacetylase 1 (Q13547 whole entry, the tested form may be a part): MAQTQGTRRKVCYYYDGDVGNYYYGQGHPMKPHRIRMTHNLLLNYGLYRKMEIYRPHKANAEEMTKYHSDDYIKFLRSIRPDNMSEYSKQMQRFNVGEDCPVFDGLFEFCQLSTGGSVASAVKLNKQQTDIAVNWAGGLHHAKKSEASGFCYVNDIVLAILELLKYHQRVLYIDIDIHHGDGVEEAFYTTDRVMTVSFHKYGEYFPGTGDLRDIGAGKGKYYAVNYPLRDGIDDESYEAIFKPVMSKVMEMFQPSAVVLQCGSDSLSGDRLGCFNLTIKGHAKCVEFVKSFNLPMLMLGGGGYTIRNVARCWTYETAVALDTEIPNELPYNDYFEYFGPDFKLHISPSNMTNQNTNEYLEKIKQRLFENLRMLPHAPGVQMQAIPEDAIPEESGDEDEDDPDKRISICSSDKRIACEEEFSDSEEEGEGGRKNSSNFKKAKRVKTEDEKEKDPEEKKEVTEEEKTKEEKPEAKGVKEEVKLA

SMILES: Nc1ccccc1NC(=O)c1ccc(C(=O)NCCNc2nonc2/C(=N/O)Nc2ccc(F)c(Br)c2)s1
- IC50 (Histone deacetylase 1): 1.43 µM
- inhibition [1]: 76%
- IC50 [2]: 18.3 µM
- IC50 (CT26): 38.8 µM
- IC50 (A549): 14.5 µM
- IC50 (HCT-116 [3]): 7.12 µM
- IC50 (HT-29): 20.3 µM

SMILES: O=C(CCCCC(=O)NCCNc1nonc1/C(=N/O)Nc1ccc(F)c(Br)c1)NO
- IC50 (Histone deacetylase 1): 0.308 µM
- IC50 [4]: 0.123 µM
- IC50 [2]: > 100 µM
- IC50 (CT26): > 100 µM
- IC50 (A549): > 100 µM
- IC50 (HCT-116 [3]): 85.4 µM
- IC50 (HT-29): > 100 µM

SMILES: O=C(CCCCCCC(=O)NCCNc1nonc1/C(=N/O)Nc1ccc(F)c(Br)c1)NO
- IC50 (Histone deacetylase 1): 0.0477 µM
- IC50 [4]: 0.14 µM
- IC50 [2]: 56.6 µM
- IC50 (CT26): 97.5 µM
- IC50 (A549): 36 µM
- IC50 (HCT-116 [3]): 4.7 µM
- IC50 (HT-29): 14.9 µM
- Activity (HCT-116 [5]): Dose-dependent effect
- Activity (HCT-116 [6]): 25.5%
- Activity (HCT-116 [7]): 31.1%
- Activity (HCT-116 [8]): 44.5%
- Activity (HCT-116 [9]): Active

SMILES: Nc1ccccc1NC(=O)c1ccc(C(=O)NCCNc2nonc2/C(=N/O)Nc2ccc(F)c(Br)c2)cn1
- IC50 (Histone deacetylase 1): 0.604 µM
- IC50 [4]: 0.26 µM
- IC50 [2]: 15.1 µM
- IC50 (CT26): 23.3 µM
- IC50 (A549): 20.7 µM
- IC50 (HCT-116 [3]): 6.36 µM
- IC50 (HT-29): 12.2 µM

SMILES: Nc1ccccc1NC(=O)c1cccc(C(=O)NCCNc2nonc2/C(=N/O)Nc2ccc(F)c(Br)c2)c1
- IC50 (Histone deacetylase 1): 0.633 µM
- inhibition [1]: 79%
- IC50 [2]: 31.4 µM
- IC50 (CT26): 25.5 µM
- IC50 (A549): 27.8 µM
- IC50 (HCT-116 [3]): 16.2 µM
- IC50 (HT-29): 46.4 µM

SMILES: O=C(CCCCn1cc(-c2ccc(C(=O)NCCNc3nonc3/C(=N/O)Nc3ccc(F)c(Br)c3)cc2)nn1)NO
- IC50 (Histone deacetylase 1): 0.895 µM
- inhibition [1]: 88%
- IC50 [2]: > 100 µM
- IC50 (CT26): > 100 µM
- IC50 (A549): > 100 µM
- IC50 (HCT-116 [3]): 37.5 µM
- IC50 (HT-29): > 100 µM

SMILES: O=C(CCCC(=O)NCCNc1nonc1/C(=N/O)Nc1ccc(F)c(Br)c1)NO
- IC50 (Histone deacetylase 1): 0.121 µM
- IC50 [4]: 0.133 µM
- IC50 [2]: > 100 µM
- IC50 (CT26): > 100 µM
- IC50 (A549): > 100 µM
- IC50 (HCT-116 [3]): 80.2 µM
- IC50 (HT-29): > 100 µM

SMILES: O=C(CCCCCC(=O)NCCNc1nonc1/C(=N/O)Nc1ccc(F)c(Br)c1)NO
- IC50 (Histone deacetylase 1): 0.0092 µM
- IC50 [4]: 0.113 µM
- IC50 [2]: 90.1 µM
- IC50 (CT26): 95.5 µM
- IC50 (A549): 40.7 µM
- IC50 (HCT-116 [3]): 17.5 µM
- IC50 (HT-29): 28.7 µM

SMILES: O=C(/C=C/c1ccc(C(=O)NCCNc2nonc2/C(=N/O)Nc2ccc(F)c(Br)c2)cc1)NO
- IC50 (Histone deacetylase 1): 0.0462 µM
- IC50 [4]: 0.168 µM
- IC50 [2]: 21.6 µM
- IC50 (CT26): 12.8 µM
- IC50 (A549): 25.6 µM
- IC50 (HCT-116 [3]): 5.89 µM
- IC50 (HT-29): 14.2 µM
- Activity (HCT-116 [5]): Dose-dependent effect
- Activity (HCT-116 [6]): 26.7%
- Activity (HCT-116 [7]): 45.4%
- Activity (HCT-116 [8]): 61.3%
- Activity (HCT-116 [9]): Active

SMILES: O=C(NO)c1ccc(C(=O)NCCNc2nonc2/C(=N/O)Nc2ccc(F)c(Br)c2)cc1
- IC50 (Histone deacetylase 1): 0.262 µM
- inhibition [1]: 95%
- IC50 [2]: > 100 µM
- IC50 (CT26): > 100 µM
- IC50 (A549): 89.8 µM
- IC50 (HCT-116 [3]): 28.1 µM
- IC50 (HT-29): 68 µM

SMILES: O=C(CCCCCCn1cc(-c2ccc(C(=O)NCCNc3nonc3/C(=N/O)Nc3ccc(F)c(Br)c3)cc2)nn1)NO
- IC50 (Histone deacetylase 1): 0.0235 µM
- IC50 [4]: 0.21 µM
- IC50 [2]: 36 µM
- IC50 (CT26): 90.2 µM
- IC50 (A549): 45.5 µM
- IC50 (HCT-116 [3]): 29.4 µM
- IC50 (HT-29): 23.9 µM

SMILES: NS(=O)(=O)NCCNc1nonc1/C(=N/O)Nc1ccc(F)c(Br)c1 [EPACADOSTAT]
- IC50 [2]: > 100 µM
- IC50 (CT26): > 100 µM
- IC50 (A549): > 100 µM
- IC50 (HCT-116 [3]): > 100 µM
- IC50 (HT-29): > 100 µM
- inhibition (Mus musculus [10]): Active
- inhibition in vivo at 100 mg/kg (Mus musculus [11]): 50%
- inhibition in vivo at 100 mg/kg [12]: 54.3%

SMILES: O=C(/C=C/c1cccc(C(=O)NCCNc2nonc2/C(=N/O)Nc2ccc(F)c(Br)c2)c1)NO
- IC50 (Histone deacetylase 1): 0.0705 µM
- IC50 [4]: 0.027 µM
- IC50 [2]: 53.3 µM
- IC50 (CT26): 38.9 µM
- IC50 (A549): 41.7 µM
- IC50 (HCT-116 [3]): 12.4 µM
- IC50 (HT-29): 23.3 µM

SMILES: O=C(CCCCCn1cc(-c2ccc(C(=O)NCCNc3nonc3/C(=N/O)Nc3ccc(F)c(Br)c3)cc2)nn1)NO
- IC50 (Histone deacetylase 1): 0.0665 µM
- inhibition [1]: 87%
- IC50 [2]: > 100 µM
- IC50 (CT26): > 100 µM
- IC50 (A549): > 100 µM
- IC50 (HCT-116 [3]): > 100 µM
- IC50 (HT-29): > 100 µM

SMILES: NS(=O)(=O)NCCNc1nonc1C(=NO)Nc1ccc(F)c(Br)c1 [EPACADOSTAT]
- Cmax [13]: 5560 ng/mL
- Tmax [14]: 0.8 h
- half-life [15]: 4.5 h
- AUC(0-inf) [16]: 30700 ng·h/mL
- AUC [17]: 70.2 µM·h
- half-life [18]: 4.5 h
